{"source": "patent US20130289070A1", "about": "“Use of Levocabastine for Modulating Generation of Pro-Inflammatory Cytokines” (Bausch & Lomb Incorporated, priority 2007, published 2013)", "tested_on": "EoL-1 (human eosinophilic leukaemia cell line) cells", "test": "TNF-α-induced cytokine release, non-differentiated EoL-1 cells (NO PMA) (Luminex)", "assay_type": "cell-based", "parameters": "key to Fractalkine (NO PMA), p of decrement / IL-1α (NO PMA), p of decrement / IL-1β (NO PMA), p of decrement / IL-1ra (NO PMA), p of decrement / IL-5 (NO PMA), p of decrement / IL-7 (NO PMA), p of decrement / IL-8 (NO PMA), p of decrement / IP-10 (NO PMA), p of decrement / MCP-1 (NO PMA), p of decrement / MIP-1β (NO PMA), p of decrement / VEGF (NO PMA), p of decrement: ns = non significant", "protocol": "EoL-1 (human eosinophilic leukaemia cell line) cells (Saito et al., 1985; Mayumi, 1992) were maintained in RPMI-1640 medium with L-glutamine supplemented with 10% (v/v) FBS at 37° C. in a humidified atmosphere with 5% CO2. Where indicated, 24 h before the experiment 25 ng/mL PMA ((phorbol 12-myristate 13-acetate, purchased from Sigma Aldrich) was added to the medium to induce eosinophil granulation and differentiation (Ohtsu et al., 1993; Zimmermann et al., 2000).\nHalf-million cells were aliquoted per point in a 24 well plate; each experiment was performed in triplicate and carried out in parallel with eosinophils differentiated and non differentiated with PMA (25 ng/mL, 24 h). Cells were suspended in low serum medium (RPMI-1640, 0.1% (v/v) FBS). TNF-α was used to induce cytokine secretion as previously described by Steube et al. (2000), and the net release was obtained by comparison to the basal (non-TNF-α treated). In the first experiment we evaluated the concentration and time relation between TNF-α stimulation and cytokine release. Therefore, 5, 10, and 25 ng/mL of TNF-α was administered to the cells at 0, ½, 1, 2, 3, 6, 12 and 24 h (data not shown). An aliquot of 150 μL of supernate was collected for cytokines' analysis. […] Differentiated and non-differentiated EoL-1 cells were exposed from 0.1 to 2.3 mM levocabastine ([…]Levocabastine 0.05% solution eye drops containing cyclodextrins, without benzalkonium chloride), and aliquots of the supernates were collected after 12 and 24 h. The content of cytokines at time zero was estimated by treating the cells with 400 nM calcimycin (A-23187), which is a cytolytic agent that frees all the mediators from the cytoplasmic compartment. In addition, for each experiment we tested the effect of the vehicle, which was added to the wells in a concentration equal to the maximum amount used for drug dilution.\nSamples (supernates 12 and 24 h) in triplicate were analyzed using Luminex 200™ (Luminex, Austin, Tex.) and Beadview software v1.0 (Upstate Cell Signaling Solutions, Temecula, Calif.).\nAll data are presented as mean±SEM for the indicated number of experiments. Statistical significance was determined by Newman-Keuls test after ANOVA using GraphPad Prism (version 3.0; GraphPad Software Inc., San Diego, Calif., USA). P-values<0.05 were considered to be significant.", "key": {"[1]": {"details": "12 h, TNF-α 5 ng + Levocabastine 2 mM vs TNF-α"}, "[2]": {"details": "12 h, TNF-α 10 ng + Levocabastine 2 mM vs TNF-α"}, "[3]": {"details": "12 h, TNF-α 20 ng + Levocabastine 2 mM vs TNF-α"}, "[4]": {"details": "12 h, TNF-α 5, 10, 20 ng + Levocabastine 2 mM vs TNF-α"}}, "data": [{"smiles": "C[C@@H]1CN([C@H]2CC[C@](C#N)(c3ccc(F)cc3)CC2)CC[C@]1(C(=O)O)c1ccccc1", "note": "[Levocabastine, levocabastine]", "values": [{"measurement": "release of IL-1-ra induced by TNF-α", "setting": "2 mM, TNF-α 10 ng, 24 h, not exposed to PMA, not influenced by VCAM-1 or fibronectin (FIG. 11)", "value": "effective in reducing the release"}, {"measurement": "release of IL-6 induced by TNF-α", "setting": "2 mM, TNF-α 10 ng, 24 h, not exposed to PMA, not influenced by VCAM-1 or fibronectin (FIG. 12)", "value": "effective in reducing the release"}, {"measurement": "release of IL-8 induced by TNF-α", "setting": "2 mM, TNF-α 10 ng, 24 h, not exposed to PMA, not influenced by VCAM-1 or fibronectin (FIG. 13)", "value": "effective in reducing the release"}, {"measurement": "release of IL-12-P40 induced by TNF-α", "setting": "2 mM, TNF-α 5, 10 and 20 ng, 24 h, without PMA (FIG. 7)", "value": "capable of reducing the release"}, {"measurement": "GM-CSF (NO PMA), p of decrement", "setting": "[1]", "value": "ns"}, {"measurement": "IL-1β (NO PMA), p of decrement", "setting": "[1]", "value": "ns"}, {"measurement": "IL-5 (NO PMA), p of decrement", "setting": "[1]", "value": "ns"}, {"measurement": "IL-6 (NO PMA), p of decrement", "setting": "[1]", "value": "ns"}, {"measurement": "IL-7 (NO PMA), p of decrement", "setting": "[1]", "value": "ns"}, {"measurement": "IL-8 (NO PMA), p of decrement", "setting": "[1]", "value": "ns"}, {"measurement": "IL-10 (NO PMA), p of decrement", "setting": "[1]", "value": "ns"}, {"measurement": "IL-12p40 (NO PMA), p of decrement", "setting": "[1]", "value": "P < 0.001"}, {"measurement": "MCP-1 (NO PMA), p of decrement", "setting": "[1]", "value": "ns"}, {"measurement": "TGF-α (NO PMA), p of decrement", "setting": "[1]", "value": "ns"}, {"measurement": "VEGF (NO PMA), p of decrement", "setting": "[1]", "value": "P < 0.01"}, {"measurement": "GM-CSF (NO PMA), p of decrement", "setting": "[2]", "value": "ns"}, {"measurement": "IL-1β (NO PMA), p of decrement", "setting": "[2]", "value": "ns"}, {"measurement": "IL-5 (NO PMA), p of decrement", "setting": "[2]", "value": "ns"}, {"measurement": "IL-6 (NO PMA), p of decrement", "setting": "[2]", "value": "ns"}, {"measurement": "IL-7 (NO PMA), p of decrement", "setting": "[2]", "value": "ns"}, {"measurement": "IL-8 (NO PMA), p of decrement", "setting": "[2]", "value": "ns"}, {"measurement": "IL-10 (NO PMA), p of decrement", "setting": "[2]", "value": "ns"}, {"measurement": "IL-12p40 (NO PMA), p of decrement", "setting": "[2]", "value": "P < 0.001"}, {"measurement": "MCP-1 (NO PMA), p of decrement", "setting": "[2]", "value": "ns"}, {"measurement": "TGF-α (NO PMA), p of decrement", "setting": "[2]", "value": "ns"}, {"measurement": "VEGF (NO PMA), p of decrement", "setting": "[2]", "value": "P < 0.01"}, {"measurement": "GM-CSF (NO PMA), p of decrement", "setting": "[3]", "value": "ns"}, {"measurement": "IL-1β (NO PMA), p of decrement", "setting": "[3]", "value": "ns"}, {"measurement": "IL-5 (NO PMA), p of decrement", "setting": "[3]", "value": "ns"}, {"measurement": "IL-6 (NO PMA), p of decrement", "setting": "[3]", "value": "ns"}, {"measurement": "IL-7 (NO PMA), p of decrement", "setting": "[3]", "value": "ns"}, {"measurement": "IL-8 (NO PMA), p of decrement", "setting": "[3]", "value": "ns"}, {"measurement": "IL-10 (NO PMA), p of decrement", "setting": "[3]", "value": "ns"}, {"measurement": "IL-12p40 (NO PMA), p of decrement", "setting": "[3]", "value": "P < 0.001"}, {"measurement": "MCP-1 (NO PMA), p of decrement", "setting": "[3]", "value": "ns"}, {"measurement": "TGF-α (NO PMA), p of decrement", "setting": "[3]", "value": "ns"}, {"measurement": "VEGF (NO PMA), p of decrement", "setting": "[3]", "value": "P < 0.05"}, {"measurement": "Fractalkine (NO PMA), p of decrement", "setting": "[4]", "value": "increase of cytokine secretion"}, {"measurement": "G-CSF (NO PMA), p of decrement", "setting": "[4]", "value": "increase of cytokine secretion"}, {"measurement": "IL-1ra (NO PMA), p of decrement", "setting": "[4]", "value": "increase of cytokine secretion"}, {"measurement": "IL-1α (NO PMA), p of decrement", "setting": "[4]", "value": "increase of cytokine secretion"}, {"measurement": "IP-10 (NO PMA), p of decrement", "setting": "[4]", "value": "increase of cytokine secretion"}, {"measurement": "MIP-1α (NO PMA), p of decrement", "setting": "[4]", "value": "increase of cytokine secretion"}, {"measurement": "MIP-1β (NO PMA), p of decrement", "setting": "[4]", "value": "increase of cytokine secretion"}, {"measurement": "RANTES (NO PMA), p of decrement", "setting": "[4]", "value": "increase of cytokine secretion"}, {"measurement": "Fractalkine (NO PMA), p of decrement", "setting": "12 h, TNF-α vs Lev 0.1 mM", "value": "ns"}, {"measurement": "IL-1ra (NO PMA), p of decrement", "setting": "12 h, TNF-α vs Lev 0.1 mM", "value": "ns"}, {"measurement": "IL-1α (NO PMA), p of decrement", "setting": "12 h, TNF-α vs Lev 0.1 mM", "value": "ns"}, {"measurement": "IL-1β (NO PMA), p of decrement", "setting": "12 h, TNF-α vs Lev 0.1 mM", "value": "ns"}, {"measurement": "IL-5 (NO PMA), p of decrement", "setting": "12 h, TNF-α vs Lev 0.1 mM", "value": "ns"}, {"measurement": "IL-7 (NO PMA), p of decrement", "setting": "12 h, TNF-α vs Lev 0.1 mM", "value": "ns"}, {"measurement": "IL-8 (NO PMA), p of decrement", "setting": "12 h, TNF-α vs Lev 0.1 mM", "value": "ns"}, {"measurement": "IP-10 (NO PMA), p of decrement", "setting": "12 h, TNF-α vs Lev 0.1 mM", "value": "ns"}, {"measurement": "MCP-1 (NO PMA), p of decrement", "setting": "12 h, TNF-α vs Lev 0.1 mM", "value": "ns"}, {"measurement": "MIP-1β (NO PMA), p of decrement", "setting": "12 h, TNF-α vs Lev 0.1 mM", "value": "ns"}, {"measurement": "VEGF (NO PMA), p of decrement", "setting": "12 h, TNF-α vs Lev 0.1 mM", "value": "ns"}, {"measurement": "Fractalkine (NO PMA), p of decrement", "setting": "12 h, TNF-α vs Lev 0.5 mM", "value": "ns"}, {"measurement": "IL-1ra (NO PMA), p of decrement", "setting": "12 h, TNF-α vs Lev 0.5 mM", "value": "ns"}, {"measurement": "IL-1α (NO PMA), p of decrement", "setting": "12 h, TNF-α vs Lev 0.5 mM", "value": "ns"}, {"measurement": "IL-1β (NO PMA), p of decrement", "setting": "12 h, TNF-α vs Lev 0.5 mM", "value": "ns"}]}]}
